Patent US20060069132A1, “Azolecarboxamide herbicides” (priority 2004, published 2006)

Experiments:
wild oat = assay: Test B postemergence herbicide test; format: in vivo, Avena fatua; settings: postemergence
Method in brief: (§1)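 Greenhouse test; postemergence application to plants at 1–4 leaves (2–18 cm); paddy species at 2 leaves; evaluated visually vs controls at 13–15 days; scale 0–100 (100 = complete control).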

barnyardgrass [1] = assay: Test B pre-/postemergence herbicide test; format: in vivo, Echinochloa crus-galli; settings: for Barnyardgrass plant response rating: postemergence
Method in brief: (§2)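 Seeds were planted and treated preemergence with compounds formulated in a non-phytotoxic solvent mixture containing surfactant, while plants at the 1- to 4-leaf stage (2 to 18 cm) received postemergence sprays. Flooded paddy plants were grown to the 2-leaf stage. After 13 to 15 days in a greenhouse, injury was visually rated 0–100 against untreated controls.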

giant foxtail [2] = assay: Test A pre-/postemergence herbicide test; format: in vivo, Setaria faberi
Method in brief: (§3)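 Seeds sown in sandy loam received a preemergence directed soil spray of compound in non-phytotoxic solvent with surfactant; postemergence plants (2–10 cm, one- to two-leaf stage) were sprayed to runoff at the same time. After ~10 days in greenhouse, injury was rated visually versus untreated controls (0 = no effect, 100 = complete control).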

[3] = test system: small flower umbrella sedge; assay: Test B flooded paddy test; format: in vivo, Cyperus difformis; settings: 1000 g ai/ha, scale 0 to 100 (0 no effect, 100 complete control)
Method in brief: (§4)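 Postemergence plants were sprayed with formulated test chemicals at 2 to 18 cm height (1- to 4-leaf stage); paddy species were grown to the 2-leaf stage. After 13 to 15 days in a greenhouse, injury was rated visually against untreated controls on a 0–100 scale (0 = no effect, 100 = complete control).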

velvetleaf [4] = assay: Test B pre-/postemergence herbicide test; format: in vivo, Abutilon theophrasti; settings: 100 is complete control
Method in brief: (§5)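 Pre: seeds sown, then sprayed. Post: 1–4-leaf plants (2–18 cm) sprayed at the same time. Paddy: flooded, treated at 2-leaf stage. Formulation: non-phytotoxic solvent with surfactant. Greenhouse 13–15 days; visual 0–100 score relative to controls.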

barnyardgrass [5] = assay: Test A pre-/postemergence herbicide test; format: in vivo, Echinochloa crus-galli
Method in brief: as §3

ducksalad = assay: Test B flooded paddy test; format: in vivo, Heteranthera limosa; settings: 1000 g ai/ha, scale 0 to 100 (0 no effect, 100 complete control)
Method in brief: as §4

Surinam grass = assay: Test B pre-/postemergence herbicide test; format: in vivo, Urochloa decumbens; settings: for Surinam Grass plant response rating: postemergence
Method in brief: as §5

barnyardgrass [6] = assay: Test B flooded paddy test; format: in vivo, Echinochloa crus-galli; settings: 1000 g ai/ha, scale 0 to 100 (0 no effect, 100 complete control)
Method in brief: as §4

wheat = assay: Test B postemergence herbicide test; format: in vivo, Triticum aestivum; design: key to Wheat plant response rating: 0 = no effect, 100 = complete control; settings: postemergence
Method in brief: as §1

giant foxtail [7] = assay: Test B pre-/postemergence herbicide test; format: in vivo, Setaria faberi; settings: for Foxtail, Giant plant response rating: postemergence
Method in brief: as §5

rice = assay: Test B flooded paddy test; format: in vivo, Oryza sativa; settings: 1000 g ai/ha, scale 0 to 100 (0 no effect, 100 complete control)
Method in brief: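 Plants grow to 1- to 4-leaf stage (2–18 cm) for postemergence spraying, or to 2-leaf stage for the paddy test. Formulated compound is applied. Greenhouse holding lasts 13–15 days. Response is scored visually relative to controls, 0 no effect to 100 complete control; a dash means no result.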

large crabgrass [8] = assay: Test A pre-/postemergence herbicide test; format: in vivo, Digitaria sanguinalis
Method in brief: as §3

large crabgrass [9] = assay: Test B pre-/postemergence herbicide test; format: in vivo, Digitaria sanguinalis; settings: for Crabgrass, Large plant response rating: postemergence
Method in brief: as §5

corn = assay: Test B pre-/postemergence herbicide test; format: in vivo, Zea mays; settings: for Corn plant response rating: postemergence
Method in brief: as §5

redroot pigweed = assay: Test A pre-/postemergence herbicide test; format: in vivo, Amaranthus retroflexus
Method in brief: as §3

pigweed = assay: Test B pre-/postemergence herbicide test; format: in vivo, Amaranthus retroflexus; settings: for Pigweed plant response rating: postemergence
Method in brief: as §5

morningglory [10] = assay: Test B pre-/postemergence herbicide test; format: in vivo, Ipomoea coccinea; settings: for Morningglory plant response rating: postemergence
Method in brief: as §2

blackgrass = assay: Test B postemergence herbicide test; format: in vivo, Alopecurus myosuroides; settings: postemergence
Method in brief: as §4

velvetleaf [11] = assay: Test A pre-/postemergence herbicide test; format: in vivo, Abutilon theophrasti
Method in brief: as §3

morningglory [12] = assay: Test A pre-/postemergence herbicide test; format: in vivo, Ipomoea spp.
Method in brief: as §3

cocklebur = assay: Test B pre-/postemergence herbicide test; format: in vivo, Xanthium strumarium
Method in brief: as §2

lambsquarters = assay: Test B pre-/postemergence herbicide test; format: in vivo, Chenopodium album; settings: for Lambsquarters plant response rating: postemergence
Method in brief: as §5

[13] = 125 g ai/ha, visual rating, scale 0 (no effect) to 100 (complete control)
[14] = 500 g ai/ha, scale 0 to 100, 0 is no effect, 100 is complete control
[15] = 125 g ai/ha, 0 is no effect, 100 is complete control, preemergence
[16] = 500 g ai/ha, visual rating, 0 = no effect, 100 = complete control, preemergence
[17] = Postemergence, 500 g ai/ha, 0 to 100 scale, 0 no effect, 100 complete control
[18] = Postemergence, 2000 g ai/ha, 0 to 100 scale, 0 no effect, 100 complete control
[19] = Preemergence, 2000 g ai/ha, visual rating, 0 to 100 scale (0 no effect, 100 complete control)
[20] = preemergence, 500 g ai/ha, visual injury, 0 to 100 scale (0 no effect, 100 complete control)

## CCNC(=O)c1cccc(NC(=O)c2nn(C3CCCC3)nc2CC)c1 [Compound 356]
Wild oat; [13]
  Oat, Wild plant response rating: 0
Wild oat; [14]
  Oat, Wild plant response rating: 20
Barnyardgrass [1]; [15]
  Plant response rating (0 to 100 scale), Barnyardgrass: 60
Barnyardgrass [1]; [13]
  Barnyardgrass plant response rating: 0
Barnyardgrass [1]; [16]
  Plant response rating, Barnyardgrass: 80
Barnyardgrass [1]; [14]
  Barnyardgrass plant response rating: 0
Giant foxtail [2]; [17]
  Foxtail, Giant plant response rating: 10
Giant foxtail [2]; [18]
  Plant response rating, Foxtail, Giant: 10
Giant foxtail [2]; [19]
  Foxtail, Giant plant response rating: 45
Giant foxtail [2]; [20]
  Foxtail, Giant plant response rating: 20
[3]
  Sedge, Umbrella plant response rating: 70
Velvetleaf [4]; 125 g ai/ha, 0 is no effect, preemergence
  Plant response rating (0 to 100 scale), Velvetleaf: 0
Velvetleaf [4]; postemergence, 500 g ai/ha, scale 0 to 100, 0 is no effect
  Velvetleaf plant response rating: 0
Barnyardgrass [5]; [17]
  Barnyardgrass plant response rating: 25
Barnyardgrass [5]; [18]
  Plant response rating, Barnyardgrass: 40
Barnyardgrass [5]; [19]
  Barnyardgrass plant response rating: 45
Barnyardgrass [5]; [20]
  Barnyardgrass plant response rating: 5
ducksalad
  Ducksalad plant response rating: 60
Surinam grass; [15]
  Plant response rating (0 to 100 scale), Surinam Grass: 10
Surinam grass; [13]
  Surinam Grass plant response rating: 10
Surinam grass; [16]
  Plant response rating, Surinam Grass: 60
Surinam grass; [14]
  Surinam Grass plant response rating: 20
Barnyardgrass [6]
  Barnyardgrass plant response rating: 50
wheat; [13]
  Wheat plant response rating: 0
wheat; [14]
  Wheat plant response rating: 10
Giant foxtail [7]; [15]
  Plant response rating (0 to 100 scale), Foxtail, Giant: 10
Giant foxtail [7]; [13]
  Foxtail, Giant plant response rating: 30
Giant foxtail [7]; [16]
  Plant response rating, Foxtail, Giant: 80
Giant foxtail [7]; [14]
  Foxtail, Giant plant response rating: 30
rice
  Rice plant response rating: 50
Large crabgrass [8]; [17]
  Crabgrass, Large plant response rating: 10
Large crabgrass [8]; [18]
  Plant response rating, Crabgrass, Large: 15
Large crabgrass [8]; [19]
  Crabgrass, Large plant response rating: 20
Large crabgrass [8]; [20]
  Crabgrass, Large plant response rating: 10
Large crabgrass [9]; [15]
  Plant response rating (0 to 100 scale), Crabgrass, Large: 40
Large crabgrass [9]; [13]
  Crabgrass, Large plant response rating: 10
Large crabgrass [9]; [16]
  Plant response rating, Crabgrass, Large: 90
Large crabgrass [9]; [14]
  Crabgrass, Large plant response rating: 30
corn; [15]
  Plant response rating (0 to 100 scale), Corn: 10
corn; [13]
  Corn plant response rating: 0
corn; [16]
  Plant response rating, Corn: 50
corn; [14]
  Corn plant response rating: 0
Redroot pigweed; [17]
  Pigweed plant response rating: 65
Redroot pigweed; [18]
  Plant response rating, Pigweed: 70
Redroot pigweed; [19]
  Pigweed plant response rating: 80
Redroot pigweed; [20]
  Pigweed plant response rating: 25
pigweed; [15]
  Plant response rating (0 to 100 scale), Pigweed: 70
pigweed; [13]
  Pigweed plant response rating: 30
pigweed; [16]
  Plant response rating, Pigweed: 100
pigweed; [14]
  Pigweed plant response rating: 70
Morningglory [10]; [15]
  Plant response rating (0 to 100 scale), Morningglory: 0
Morningglory [10]; [13]
  Morningglory plant response rating: 0
Morningglory [10]; [16]
  Plant response rating, Morningglory: 10
Morningglory [10]; [14]
  Morningglory plant response rating: 10
blackgrass; [13]
  Blackgrass plant response rating: 0
blackgrass; [14]
  Blackgrass plant response rating: 10
Velvetleaf [11]; [17]
  Velvetleaf plant response rating: 10
Velvetleaf [11]; [18]
  Plant response rating, Velvetleaf: 10
Velvetleaf [11]; [19]
  Velvetleaf plant response rating: 20
Velvetleaf [11]; [20]
  Velvetleaf plant response rating: 0
Morningglory [12]; [17]
  Morningglory plant response rating: 10
Morningglory [12]; [18]
  Plant response rating, Morningglory: 20
Morningglory [12]; [19]
  Morningglory plant response rating: 15
Morningglory [12]; [20]
  Morningglory plant response rating: 5
cocklebur; [15]
  Plant response rating (0 to 100 scale), Cocklebur: 0
cocklebur; [16]
  Plant response rating, Cocklebur: 20
cocklebur; postemergence, 500 g ai/ha, scale 0 to 100, 0 is no effect, 100 is complete control
  Cocklebur plant response rating: 0
lambsquarters; [15]
  Plant response rating (0 to 100 scale), Lambsquarters: 40
lambsquarters; [13]
  Lambsquarters plant response rating: 10
lambsquarters; [16]
  Plant response rating, Lambsquarters: 100
lambsquarters; [14]
  Lambsquarters plant response rating: 50
